Series [1] concerns the target T1, AChE from Electrophorus electricus (type VI-S) (Electrophorus electricus, UniProt O42275).
T1 construct: purchased type VI-S
The series is described as follows: biochemical. The following applies: Ellman's method, pH 7.4, acetylthiocholine 1 mM; mean ± SD; read-out: Anti-AChE IC50. Here is the method:
It is well-known that the cholinergic system plays a vital role in the regulation of the learning, cognitive and memory processes. […] In the present study, all acridones were tested for their inhibition of AChE according to the method of Ellman and co-workers, using tacrine as a reference compound. […] Acridone consists of two benzene rings fused together with a keto group and a nitrogen atom at positions 9 and 10, respectively, resulting in a planar structure.
AChE activity was evaluated and modified from Ellman’s method. All test compounds were prepared as stock solution in ethanol. […] Experiments were performed in triplicates.

Series [2] deals with SH-SY5Y neuroblastoma cells. As to the kind of experiment: Cytotoxicity by MTT assay in SH-SY5Y cells. The format is cell-based. The following applies: 0.1–10 µM, 24 h incubation. On the procedure: […]. […] […]. Thus, the acridones were investigated for neuroprotective effects against H2O2 and Aβ1-42 induced toxicity in human SH-SY5Y neuroblastoma cells at the non-toxic concentration of 10 µM.
(§1) Human neuroblastoma cell line SH-SY5Y cells were cultured in Dulbecco’s modified Eagle medium (DMEM)/Ham’s F-12 medium supplemented with 10% fetal bovine serum (FBS), 100 U/mL penicillin and 100 µg/mL streptomycin. Cells were routinely cultured in 75 cm^2 cell culture flasks at 37 °C in 5% CO2. After that, cells were seeded at a density 5 × 10^5 cells/mL in 96-well plates and incubated for an additional 48 h before evaluation.
For the investigation of the toxicity effect of test compounds, cells were treated with test compounds at final concentrations of 0.1, 1, 10, 100 μM for 24 h. […] Then, culture media was replaced with a solution of MTT (0.5 mg/mL) at 37 °C for 2 h to determine survival of cells. Live cells containing formazan crystals were solubilized in 100 µL of DMSO. The absorption was measured by UV spectrometer ([…] Accureader M965) at 570 nm. The percentages of cell viability were calculated in relation to untreated cells.
(In general: Tetrazolium assays rely on reduction of a dye to a coloured formazan, in cell work by metabolically active cells.)

Series [3] relates to SH-SY5Y cells. As to the kind of experiment: Neuroprotection against H2O2-induced cell death in SH-SY5Y cells. The following applies: 10 µM pre-treatment 24 h, then 250 µM H2O2 for 2 h. The class given is cell-based, Human. Here is the method: (§2) To examine the neuroprotective effects of acridones against H2O2, SH-SY5Y cells were pre-treated with 10 µM citrusinine II and glycosparvarine for 24 h before exposure to 250 µM H2O2 for 2 h. […] The cytotoxic effects of H2O2 were attenuated by pre-treating cells with citrusinine II and glycosparvarine (Figure 8). For evaluation of the neuroprotective effects of acridones against Aβ1-42 toxicity, SH-SY5Y cells were pre-treated with 10 µM citrusinine II and glycosparvarine for 24 h, followed by 25 µM Aβ1-42 for 24 h. Cell viability was determined by MTT assay.
as §1
For evaluation of the neuroprotective effect against H2O2 induced cell damage, cells were pretreated with test compounds or a reference standard at the concentration of 10 μM for 24 h. After treatment, the medium was removed, and cells were washed with phosphate buffer saline to remove unabsorbed test compounds. […] The cell viability was determined by MTT assay.

Series [4] relates to SH-SY5Y cells. As to the kind of experiment: Neuroprotection against Aβ1-42-induced cell death in SH-SY5Y cells. The class given is cell-based, Human. The following applies: 10 µM pre-treatment 24 h, then 25 µM Aβ1-42 for 24 h. Here is the method:
as §2, §1
For neuroprotection against Aβ1–42 toxicity, the Aβ1–42 preparation was modified from Thiratmatrakul et al.. Briefly, lyophilized Aβ1–42 was reconstituted in sterile water and kept at –80 °C until use. […] Twenty-four hours later, cell viability was determined by the MTT colorimetric method. […]

The nature of series [5]: ABTS radical scavenging assay. The following applies: read-out: ABTS Scavenging Activity IC50; mean ± SD, triplicates; 10 to 100 µM tested.
Method: In the present study, the antioxidant activity of the 10 acridones was evaluated by ABTS radical scavenging assay and trolox was used as the reference compound.
The antioxidant activity was determined by the decolonization of the radical cation of 2,2′-azinobis-(3-ethylbenzothiazoline-6-sulfonic acid) (ABTS^•+) [60]. […] Prior to the assay, the ABTS^•+ solution was diluted to get an absorbance of 0.70 ± 0.02 at 700 nm with ethanol. Trolox was used as an antioxidant standard. All test and standard compounds were dissolved in ethanol. Fifty microliters of each test compound was added to 100 µL of diluted ABTS^•+ solution to obtain final concentrations from 10 to 100 µM. […] Experiments were performed in independent triplicates.
The next series concerns the target Aβ1-42 (Homo sapiens, UniProt P05067). The series is described as follows: Inhibition of self-mediated Aβ1-42 aggregation (thioflavin T assay).

T1 sequence (O42275 24-633): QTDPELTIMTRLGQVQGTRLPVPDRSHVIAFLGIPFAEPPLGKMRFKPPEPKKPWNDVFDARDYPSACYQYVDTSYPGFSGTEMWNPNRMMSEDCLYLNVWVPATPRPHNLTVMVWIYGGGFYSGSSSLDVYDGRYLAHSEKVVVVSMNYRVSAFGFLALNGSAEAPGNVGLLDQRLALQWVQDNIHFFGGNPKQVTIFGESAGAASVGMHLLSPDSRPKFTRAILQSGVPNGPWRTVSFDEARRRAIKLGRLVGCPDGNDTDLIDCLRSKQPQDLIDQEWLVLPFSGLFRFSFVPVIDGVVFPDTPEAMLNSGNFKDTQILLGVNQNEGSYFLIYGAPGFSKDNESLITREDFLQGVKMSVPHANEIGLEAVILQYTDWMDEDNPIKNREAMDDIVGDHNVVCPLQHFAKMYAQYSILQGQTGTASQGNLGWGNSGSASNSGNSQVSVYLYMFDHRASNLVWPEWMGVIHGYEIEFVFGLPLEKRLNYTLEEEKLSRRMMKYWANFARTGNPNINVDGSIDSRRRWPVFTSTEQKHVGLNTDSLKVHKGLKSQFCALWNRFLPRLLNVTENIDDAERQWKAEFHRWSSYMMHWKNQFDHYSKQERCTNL
Sequence of Aβ1-42 (P05067 672-713 limits assumed): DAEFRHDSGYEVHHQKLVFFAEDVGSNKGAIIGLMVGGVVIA

`COc1c(O)cc(O)c2c(=O)c3cccc(O)c3n(C)c12` [Citrusinine II, citrusinine II]: the results for the IC50 (in series [1]; in series [5]; on Aβ1-42) were 42.6 ± 4.81 µM, 20 ± 3.89 µM and 6.17 ± 2.29 µM, respectively. Moreover, in series [2], the “Effect on viability of SH-SY5Y cells (MTT)” value is on record as “no effect on viability”. Moreover, the “Neuroprotective effect against H2O2-induced loss of cell viability (MTT)” value in the series on SH-SY5Y cells [3] was “attenuated”. Further, the “Neuroprotective effect against Aβ1-42 toxicity (MTT)” value in the series on SH-SY5Y cells [4] is reported as “significantly protected”.
For the compound `COc1cc2[nH]c3c(O)cccc3c(=O)c2c(O)c1CC=C(C)C` [Buxifoliadine C, buxifoliadine C], the IC50 (in general, the midpoint of a concentration-inhibition curve) in series [1] came out at 50.8 ± 3.74 µM; in series [5], 21.8 ± 2.71 µM; on Aβ1-42, 8.81 ± 3.62 µM.
As to `Cc1c(C)c2c(c(C)c1O)CCC(C)(C(=O)O)O2` (stereo not drawn) [Trolox, reference compound], in series [5], the IC50 stood at 58.9 ± 2.38 µM.
With `CC(C)=CCc1c2c(c3[nH]c4c(O)cccc4c(=O)c3c1O)C=CC(C)(C)O2` [Atalaphyllinine, atalaphyllinine], the IC50 in series [1] turned out to be 60.8 ± 4.62 µM; in series [5] it was 53 ± 1.83 µM; at Aβ1-42 it was 4.79 ± 0.67 µM.
As for `CC(C)=CCc1c2c(c3c(c1O)c(=O)c1cccc(O)c1n3C)C=CC(C)(C)O2` [N-methylatalaphyllinine], the results for the IC50 (in series [1]; in series [5]; against Aβ1-42) were 54 ± 2.03 µM, 57.5 ± 3.52 µM and 6.14 ± 3.85 µM, respectively.
On the same counts, the results for `COc1cc(O)c2c(=O)c3cccc(O)c3n(C)c2c1OC` [Citrusinine I, citrusinine I] are 35.4 ± 1.61 µM, 33.77 ± 0.29 µM and 7.05 ± 1.45 µM.
As to `CC(C)=CCc1c(O)c(CC=C(C)C)c2[nH]c3c(O)cccc3c(=O)c2c1O` [Atalaphylline, atalaphylline], the IC50 in series [1] is 58.3 ± 2.99 µM; in series [5], 46.2 ± 2.31 µM; against Aβ1-42, 6.58 ± 1.3 µM.
As for `COc1c(O)cc2c(c1O)c(=O)c1cccc(O)c1n2C` [Glycosparvarine, glycosparvarine], the IC50 was determined as 18.6 ± 2.77 µM in series [1], 22.9 ± 2.24 µM in series [5] and 6.58 ± 2.03 µM against Aβ1-42. Moreover, the “Effect on viability of SH-SY5Y cells (MTT)” value in series [2] is listed as “no effect on viability”. Also, the “Neuroprotective effect against H2O2-induced loss of cell viability (MTT)” value with SH-SY5Y cells [3] is on record as “attenuated”.
As to `CC(C)=CCc1c2c(c(O)c3c(=O)c4cccc(O)c4n(C)c13)C=CC(C)(C)O2` [N-methylcycloatalaphylline A], the half-maximal inhibitory concentration (IC50) was determined as 66.6 ± 2.51 µM in series [1], 79.6 ± 3.26 µM in series [5] and 5.84 ± 0.99 µM against Aβ1-42.
Turning to `COc1c(O)c(OC)c2c(c1O)c(=O)c1cccc(O)c1n2C` [Citruscridone, citruscridone], the IC50 in series [1] was 47 ± 2.4 µM; in series [5] it was 31.7 ± 0.56 µM; against Aβ1-42 it was 8.61 ± 0.75 µM.
On the same counts, the results for `CC(C)=CCc1c(O)c(CC=C(C)C)c2c(c1O)c(=O)c1cccc(O)c1n2C` [N-methylatalaphylline] are 49.1 ± 2.75 µM, 50.7 ± 1.02 µM and 7.32 ± 0.09 µM.

The record behind these values is publication PMC8470973, “Multi-Target Actions of Acridones from Atalantia monophylla towards Alzheimer’s Pathogenesis and Their Pharmacokinetic Properties” (Pharmaceuticals, 2021).
